Test results from patent publication US7678557B2, “Methods for the accumulation and retention of immune-enhancing, bacterial-derived ribonucleotides (ORN) in bacteria” (priority 1993, dated 2010).

Test system: L. monocytogenes
Assay: Disk diffusion assay of antibiotic susceptibility before and after 6 serial washes in PBS (Example 9)
Format: cell-based
Settings: disk content per antimicrobial, average of 6 experiments (SD)
From the text: The disk diffusion assay was used to determine the susceptibility of vegetative forms of L. monocytogenes, before and after 6 serial 20-min washes in PBS. (See Bauer, A, Kirby, W, Sherris, J, Turck, M, 1966 Antibiotic Susceptibility Testing by a Standardize Single Disk Method, Amer J Clin Path 36:41-44).
Data are averages of 6 experiments. SD is in parentheses.

[1] = After 6 Washes (20 min each in PBS), L. monocytogenes
[2] = Before Washing, vegetative L. monocytogenes

Row | Molecule | Diameter of Zone of Inhibition [1] | Diameter of Zone of Inhibition [2]
1 | CN(C)[C@@H]1C(O)=C(C(N)=O)C(=O)[C@@]2(O)C(O)=C3C(=O)c4c(O)cccc4[C@@](C)(O)[C@H]3C[C@@H]12 [Tetracycline] | 45 (6.3) mm | 40 (5.0) mm
2 | Polymixin B |  | 0 mm
3 | CC1(C)S[C@@H]2[C@H](NC(=O)[C@H](N)c3ccccc3)C(=O)N2[C@H]1C(=O)O [Ampicillin] | 30 mm (3.6) | 32 mm (3.8)
4 | NC[C@H]1O[C@H](O[C@H]2[C@H](O)[C@@H](O[C@H]3O[C@H](CO)[C@@H](O)[C@H](N)[C@H]3O)[C@H](N)C[C@@H]2N)[C@H](O)[C@@H](O)[C@@H]1O [Kanamycin] |  | 11 (2.66) mm
5 | CN[C@H](CC(C)C)C(=O)N[C@H]1C(=O)N[C@@H](CC(N)=O)C(=O)N[C@H]2C(=O)N[C@H]3C(=O)N[C@H](C(=O)N[C@H](C(=O)O)c4cc(O)cc(O)c4-c4cc3ccc4O)[C@H](O)c3ccc(c(Cl)c3)Oc3cc2cc(c3O[C@@H]2O[C@H](CO)[C@@H](O)[C@H](O)[C@H]2O[C@H]2C[C@](C)(N)[C@H](O)[C@H](C)O2)Oc2ccc(cc2Cl)[C@H]1O [Vancomycin] | 30 (4.2) mm | 25 (3.7) mm
